# US7326689B2, “Pseudomycins useful against plant diseases” (Eli Lilly and Company, priority 2000, dated 2008)
# Columns and labels:
# Assay in all cases: Antifungal growth assay in potato dextrose broth, 24-well
# Format in all cases: cell-based
# Botrytis alli = test system: Botrytis alli; set-up: key: NI, no inhibition; p (partial), at least 50% inhibited; conditions: 2x assays
# Experimental: (§1) Fungi to be tested were propagated on potato dextrose agar (PDA) plates at room temperature. Stock solutions of pseudomycins and depsipeptide were suspended in dimethylsulfoxide (DMSO) (Sigma) at 5 mg/ml and stored at −20C. Serial dilutions of compounds were done the day of the experiment. All serial dilutions were made in DMSO. […] These are noted in the raw data section.
# (§2) Assays were performed in 24-well cell culture clusters (Costar 3524), with 990 ul potato dextrose broth (PDB, Difco) and 10 ul of the compound to be tested in each well. Initial concentrations tested were 50-1.56 ug/ml (final concentration of pseudomycin). Actual concentrations of pseudomycins tested were 50, 25, 12.5, 6.25, 3.12 and 1.56 ug/ml. Each well was inoculated with the appropriate fungus. Unless noted, the fungal inoculum consisted of an ˜4 mm^2 piece of PDA with fungal mycelium. The exceptions were as follows. Ustilago maydis: this fungus grows much like a yeast on PDA, and cells were scraped from the PDA stock plate, resuspended in PDB and 10 ul inoculum added to each well. Monilinia sp.: this fungal mycelium grows as a very loose sheet on top of PDA and would not adhere to agar blocks. Fungal mycelium was ground with a metal rod in 500 ul PDB and 10 ul inoculum was added to each well. Mycosphaeella fijiensis, Septoria passerinii, Septoria triticii: these fungi all grow very slowly and the results were difficult to score if a small piece of agar with fungal mycelium on it was used as an inoculum. For these fungi, the mycelium was ground with a metal rod in 500 ul PDB and 10 ul inoculum was added to each well.
# (§3) Wells were scored for fungal growth at two days and five days. Some slow growing fungi were scored at later days for growth because assessment was not possible at two or five days. Growth was scored by comparison to a control consisting of fungus inoculated into 990 ul potato dextrose broth and 10 ul of DMSO (Dimethylsulfoxide). An additional control consisting of fungal inoculum in PDB only was performed to ensure that the DMSO was not inhibitory to fungal growth.
# (§4) For assays that were repeated, new stock solutions were made from a second shipment of pseudomycins. Note that pseudomycin B′ and depsipeptide stock solutions were remade from first shipment materials because these were not included in the second shipment. […] Actual concentrations of pseudomycins tested were 2, 1, 0.5, 0.25, 0.125 and 0.0625 ug/ml. A-PO4 and A-FB=pseudomycin A phosphate salt and free base respectively.
# (§5) Table 2: Two day results—concentration indicated is lowest level of compound (ug /ml) that results is no growth. NI, no inhibition; p (partial), at least 50% inhibited; -, not determined. If number of assays was greater than one, number of assays performed on the fungus is noted in parentheses. For several slow-growing fungi, days elapsed before observation (if different than two) are noted.
# (§6) Table 3: Five day results—concentration indicated is lowest level of compound (ug /ml) that results in no growth. NI, no inhibition; p (partial), at least 50% inhibited; -, not performed on the fungus is noted in parentheses. For several slow-growing fungi, days elapsed before observation (if different than five) are noted.
# Phyllosticta maydis = test system: Phyllosticta maydis; set-up: key: NI, no inhibition; p (partial), at least 50% inhibited
# Experimental: as §1, §2, §3, §4, §5, §6
# Cochliobolus carbonum = test system: Cochliobolus carbonum; set-up: key: NI, no inhibition; p (partial), at least 50% inhibited
# Experimental: as §1, §2, §3, §4, §5, §6
# Phytophthora cactorum = test system: Phytophthora cactorum; set-up: key: NI, no inhibition; p (partial), at least 50% inhibited
# Experimental: as §1, §2, §3, §4, §5, §6
# Phytophthora ultimum = test system: Phytophthora ultimum; set-up: key: NI, no inhibition; p (partial), at least 50% inhibited
# Experimental: as §1, §2, §3, §4, §5, §6
# Fusarium culmorum = test system: Fusarium culmorum; set-up: key: NI, no inhibition; p (partial), at least 50% inhibited
# Experimental: as §1, §2, §3, §4, §5, §6
# [1] = test system: Pestalotiopsis microspora NE-32; set-up: key: NI, no inhibition; p (partial), at least 50% inhibited
# Experimental: as §1, §2, §3, §4, §5, §6
# Tapesia acuformis = test system: Tapesia acuformis; set-up: key: NI, no inhibition; p (partial), at least 50% inhibited; conditions: 2x assays
# Experimental: as §1, §2, §3, §4, §5, §6
# Tapesia yallundae = test system: Tapesia yallundae; set-up: key: NI, no inhibition; p (partial), at least 50% inhibited; conditions: 2x assays
# Experimental: as §1, §2, §3, §4, §5, §6
# [2] = test system: Drechslera tritici-repentis; set-up: key: NI, no inhibition; p (partial), at least 50% inhibited
# Experimental: as §1, §2, §3, §4, §5, §6
# Diplodia natalensis = test system: Diplodia natalensis; set-up: key: NI, no inhibition; p (partial), at least 50% inhibited
# Experimental: as §1, §2, §3, §4, §5, §6
# Geotrichim candidum = conditions: 3x assays
# Experimental: as §1, §2, §3, §4, §5, §6
# Drechslera portulacae = conditions: 3x assays
# Experimental: as §1, §2, §3, §4, §5, §6
# Septoria tritici = conditions: 3x assays
# Experimental: as §1, §2, §3, §4, §5, §6
# Septoria passerinii = conditions: 3x assays
# Experimental: as §1, §2, §3, §4, §5, §6
# [3] = test system: Mycosphaeella fijiensis (Sigatoka); conditions: 3x assays
# Experimental: as §1, §2, §3, §4, §5, §6
# [4] = test system: Mycosphaeella fijiensis (8088/88); conditions: 3x assays
# Experimental: as §1, §2, §3, §4, §5, §6
# Rhizoctonia solani = conditions: 2x assays
# Experimental: as §1, §2, §3, §4, §5, §6
# Penicillium roqueforti = conditions: 3x assays
# Experimental: as §1, §2, §3, §4, §5, §6
# Ustilago maydis = conditions: 3x assays
# Experimental: as §1, §2, §3, §4, §5, §6
# Monilinia sp. = conditions: 2x assays
# Experimental: as §1, §2, §3, §4, §5, §6
# [5] = Table 2 (two day results), observed at 7 day
# [6] = Table 3 (five day results), observed at 21 days
substance,measurement,setting,value
Pseudomycin B′,lowest level of compound that results in no growth,Botrytis alli; five day results,NI
same,lowest level of compound that results in no growth,Botrytis alli; two day results,NI
same,lowest level of compound that results in no growth,Phyllosticta maydis; five day results,NI
same,lowest level of compound that results in no growth,Phyllosticta maydis; two day results,p at 50
same,lowest level of compound that results in no growth,Cochliobolus carbonum; five day results,NI
same,lowest level of compound that results in no growth,Cochliobolus carbonum; two day results,NI
same,lowest level of compound that results in no growth,Phytophthora cactorum; five day results,NI
same,lowest level of compound that results in no growth,Phytophthora cactorum; two day results,NI
same,lowest level of compound that results in no growth,Phytophthora ultimum; five day results,NI
same,lowest level of compound that results in no growth,Phytophthora ultimum; two day results,NI
same,lowest level of compound that results in no growth,Fusarium culmorum; five day results,NI
same,lowest level of compound that results in no growth,Fusarium culmorum; two day results,NI
same,lowest level of compound that results in no growth,[1]; five day results,NI
same,lowest level of compound that results in no growth,[1]; two day results,NI
same,lowest level of compound that results in no growth,Tapesia acuformis; five day results,NI
same,lowest level of compound that results in no growth,Tapesia acuformis; two day results,NI
same,lowest level of compound that results in no growth,Tapesia yallundae; five day results,50 µg/mL
same,lowest level of compound that results in no growth,Tapesia yallundae; two day results,6.25 µg/mL
same,lowest level of compound that results in no growth,[2]; five day results,p at 50
same,lowest level of compound that results in no growth,"[2]; two day results, 2x assays",50 µg/mL
same,lowest level of compound that results in no growth,Diplodia natalensis; five day results,NI
same,lowest level of compound that results in no growth,Diplodia natalensis; two day results,NI
same,lowest level of compound that results in no growth,Geotrichim candidum; five day results,25 µg/mL
same,lowest level of compound that results in no growth,Geotrichim candidum; two day results,25 µg/mL
same,lowest level of compound that results in no growth,"Drechslera portulacae; Table 3 (five day results), observed at 9 day",0.25 µg/mL
same,lowest level of compound that results in no growth,Drechslera portulacae; two day results,0.12 µg/mL
same,lowest level of compound that results in no growth,Septoria tritici; five day results,0.5 µg/mL
same,lowest level of compound that results in no growth,Septoria tritici; two day results,0.5 µg/mL
same,lowest level of compound that results in no growth,Septoria passerinii; five day results,0.5 µg/mL
same,lowest level of compound that results in no growth,Septoria passerinii; two day results,0.5 µg/mL
same,lowest level of compound that results in no growth,[3]; [5],0.5 µg/mL
same,lowest level of compound that results in no growth,[3]; [6],1 µg/mL
same,lowest level of compound that results in no growth,[4]; [5],0.5 µg/mL
same,lowest level of compound that results in no growth,[4]; [6],1 µg/mL
same,lowest level of compound that results in no growth,Rhizoctonia solani; five day results,6.25 µg/mL
same,lowest level of compound that results in no growth,Rhizoctonia solani; two day results,6.25 µg/mL
same,lowest level of compound that results in no growth,Penicillium roqueforti; five day results,1.56 µg/mL
same,lowest level of compound that results in no growth,Penicillium roqueforti; two day results,1.56 µg/mL
same,lowest level of compound that results in no growth,Ustilago maydis; five day results,3.12 µg/mL
same,lowest level of compound that results in no growth,Ustilago maydis; two day results,1.56 µg/mL
same,lowest level of compound that results in no growth,Monilinia sp.; five day results,25 µg/mL
same,lowest level of compound that results in no growth,Monilinia sp.; two day results,25 µg/mL
